Patent publication US8410078B2, “Composition and methods to treat cardiac diseases” (University of Connecticut, priority 2006, dated 2013)

Tested on: CSQ mice
Test: Chronic mini-pump administration in CSQ mice: lifespan and cardiac hypertrophy
Assay type: in vivo, mouse
Text: Mice displaying the CSQ model of severe cardiomyopathy and heart failure were bred and maintained by methods known in the art. The CSQ transgenic (TG) mice were originally provided by Dr. Larry Jones (Krannert Institute of Cardiology, Indiana University School of Medicine, Indiana), and developed hypertrophy followed by a lethal heart failure phenotype with death near the age of 3 months. Ventricular myocytes were obtained from 3-month old wild type (WT) and CSQ mice of either sex (26 WT, 47 TG) by an enzymatic dissociation procedure. Briefly, the hearts were rapidly excised from mice that had been anesthetized with pentobarbital and treated with 1000 Units of heparin. The aorta was cannulated and the heart perfused in a Langendorff apparatus with oxygenated (95% O2/5% CO2) Ca^2+-free solution (37° C.) for 5 minutes at a rate of 2.5 ml/min. The solution composition was: 126 mM NaCl, 4.4 mM KCl, 1.0 mM MgCl2, 18 mM NaHCO3, 11 mM Glucose, 4 mM HEPES, and 3 mM BDM (2,3-butanedione monoxime), (pH 7.3 adjusted with NaOH). Thereafter, the perfusing solution was changed to that containing 25 μM CaCl2 and liberase (70 μg/ml, Roche Molecular Biochemicals, Inc.) for 8-10 minutes. Cells were sedimented by gravity for 10-15 minutes and the pellet was resuspended in 200 μM Ca^2+-containing Tyrode's solution (containing 3 mM BDM), allowed to settle for 30 minutes at room temperature, and suspended with Tyrode's solution containing: 135 mM NaCl, 5.4 mM KCl, 1.0 mM CaCl2, 1.0 mM MgCl2, 10 mM HEPES and 10 mM dextrose (pH 7.4 adjusted with NaOH). The experiments were carried out at room temperature (22-23° C.) and were completed within 4-6 hours after myocyte isolation.
Cardiac myocyte cross-section area was quantified by methods known in the art. […] The images of cross-sectioned cells showing consistently round shapes were captured with Macrofire® PictureFrame (Optronics, Goleta, Calif.) and cross-section area measured with ImageProPlus® (MediaCybernetics, Silver Spring, Md.). Typically, 50 to 100 cross-sectional areas were determined and averaged per heart. […]

**Q.** Which results are given for `Nc1nc(Cl)nc2c1ncn2C1[C@H]2C[C@@]2(COP(=O)(O)O)[C@@H](O)[C@H]1O` (stereo partly drawn) [MRS2339, (1′S,2′R,3′S,4′R,5′S)-4-(6-amino-2-chloro-9H-purin-9-yl)-1-[phosphoryloxymethyl]bicyclo[3.1.0]hexane-2,3-diol]?
**A.** Median lifespan (3 μM solution, about 6 μl per day for 28 days via mini-pump): 115 days; Cardiac myocyte cross-section area (chronic mini-pump treatment): 281±15 μm^2; Heart weight/body weight ratio (chronic mini-pump treatment): 10.5±1.38
